Test results reported in patent US7772271B2 (priority 2004, dated 2010).

Row | SMILES | melting point
1 | Cc1ccnc(Oc2ccc3c(C#N)c(-c4ccc(NS(=O)(=O)N[C@@H](C)C5CC5)cc4)n(C4CCC4)c3c2)n1 [Compound 3019] | 227 to 229 °C
2 | C[C@H](NS(=O)(=O)Nc1ccc(-c2c(C#N)c3ccc(Oc4ncccc4Br)cc3n2C2CCC2)cc1)C1CC1 [Compound 3020] | 118 to 124 °C
3 | CC(OC(=O)Nc1ccc(-c2c(C#N)c3ccc(OCc4cnccn4)cc3n2C2CCC2)cc1)C(F)(F)F (stereo not drawn) [Compound 3021] | 195 to 196 °C
4 | CC(C)(C)OC(=O)Nc1ccc(-c2c(C#N)c3ccc(OCS(C)(=O)=O)cc3n2CC2CC2)cc1 [Compound 3025] | 214 to 220 °C
5 | CCCS(=O)(=O)Nc1ccc(-c2c(C#N)c3ccc(Oc4ncccc4Br)cc3n2CC2CC2)c(C)c1 [Compound 3029] | 110 to 113 °C
6 | CCCS(=O)(=O)Nc1ccc(-c2c(C#N)c3ccc(Oc4ncccc4F)cc3n2CC2CC2)c(C)c1 [Compound 3030] | 128 to 131 °C
7 | C[C@@H](OC(=O)Nc1ccc(-c2c(C#N)c3ccc(Oc4ncccn4)cc3n2C2CCC2)cc1OC(F)(F)F)C1CC1 [Compound 3034] | 80 to 81 °C
8 | CC(C)OC(=O)Nc1ccc(-c2c(C#N)c3ccc(Oc4ncccn4)cc3n2C2CCC2)cc1OC(F)(F)F [Compound 3035] | 94 to 96 °C
9 | CC(C)OC(=O)Nc1c(F)cc(-c2c(C#N)c3ccc(Oc4ncccn4)cc3n2C2CCC2)cc1F [Compound 3036] | 144 to 154 °C
10 | CC(C)NC(=O)Nc1c(F)cc(-c2c(C#N)c3ccc(Oc4ncccn4)cc3n2C2CCC2)cc1F [Compound 3038] | 236 to 243 °C
11 | CC(C)OC(=O)Nc1c(F)cc(-c2c(C#N)c3ccc(OCCF)cc3n2C2CCC2)cc1F [Compound 3039] | 150 to 155 °C
12 | C[C@@H](OC(=O)Nc1c(F)cc(-c2c(C#N)c3ccc(OCCF)cc3n2C2CCC2)cc1F)C1CC1 [Compound 3040] | 176 to 180 °C
13 | CC(C)NC(=O)Nc1c(F)cc(-c2c(C#N)c3ccc(OCCF)cc3n2C2CCC2)cc1F [Compound 3041] | 224 to 229 °C
14 | C[C@@H](OC(=O)Nc1ccc(-c2c(C#N)c3ccc(-c4ccnn4C)cc3n2C2CCC2)cc1)C1CC1 [Compound 3046] | 195 to 197 °C
15 | C[C@@H](OC(=O)Nc1ccc(-c2c(C#N)c3ccc(-c4cn(C)cn4)cc3n2C2CCC2)cc1)C1CC1 [Compound 3048] | 120 °C (dec.)
16 | Cc1cc(-c2c(C#N)c3ccc(OCC(F)F)cc3n2C2CCC2)ccc1NC(=O)OC(C)C(F)(F)F (stereo not drawn) [Compound 3049] | 154 to 155 °C
17 | CC(OC(=O)Nc1ccc(-c2c(C#N)c3ccc(OCC(F)F)cc3n2C2CCC2)cc1Cl)C(F)(F)F (stereo not drawn) [Compound 3051] | 184 to 185 °C
18 | CC(C)OC(=O)Nc1ccc(-c2c(C#N)c3ccc(OCS(C)(=O)=O)cc3n2C2CC2)cc1 [Compound 3052] | 166 to 187 °C
19 | C[C@@H](OC(=O)Nc1ccc(-c2c(C#N)c3ccc(OCS(C)(=O)=O)cc3n2C2CC2)cc1)C(F)(F)F [Compound 3054] | 190 to 196 °C
20 | Cc1ccnc(Oc2ccc3c(C#N)c(-c4ccc(NC(=O)O[C@H](C)C5CC5)cc4C)n(C4CCC4)c3c2)n1 [Compound 3057] | 95 to 112 °C
21 | CCc1cnc(Oc2ccc3c(C#N)c(-c4ccc(NC(=O)O[C@H](C)C5CC5)cc4C)n(C4CCC4)c3c2)nc1 [Compound 3058] | 181 to 185 °C

Row | SMILES | melting point
22 | Cc1ccnc(Oc2ccc3c(C#N)c(-c4ccc(NC(=O)O[C@H](C)C5CC5)cc4Cl)n(C4CCC4)c3c2)n1 [Compound 3059] | 97 to 109 °C
23 | CCc1cnc(Oc2ccc3c(C#N)c(-c4ccc(NC(=O)O[C@H](C)C5CC5)cc4Cl)n(C4CCC4)c3c2)nc1 [Compound 3060] | 205 to 212 °C
24 | CC(C)(C)OC(=O)Nc1ccc(-c2c(C#N)c3ccc(OCS(C)(=O)=O)cc3n2C2CCCC2)cc1 [Compound 3066] | 237 to 241 °C
25 | CC(C)OC(=O)Nc1ccc(-c2c(C#N)c3ccc(OCS(C)(=O)=O)cc3n2C2CCCC2)cc1 [Compound 3067] | 265 to 271 °C
26 | C[C@@H](OC(=O)Nc1ccc(-c2c(C#N)c3ccc(OCS(C)(=O)=O)cc3n2C2CCCC2)cc1)C1CC1 [Compound 3068] | 218 to 224 °C
27 | CCOc1ccc2c(C#N)c(-c3ccc(NC(=O)OC4CCN(C(=O)OC(C)(C)C)CC4)cc3)n(C3CCC3)c2c1 [Compound 3069] | 207 to 211 °C
28 | CCOc1ccc2c(C#N)c(-c3ccc(NC(=O)OC4CCN(S(=O)(=O)CC)CC4)cc3)n(C3CCC3)c2c1 [Compound 3070] | 237 to 242 °C
29 | CCOc1ccc2c(C#N)c(-c3ccc(NC(=O)OC4CCN(S(=O)(=O)C5CC5)CC4)cc3)n(C3CCC3)c2c1 [Compound 3071] | 236 to 241 °C
30 | CCOc1ccc2c(C#N)c(-c3ccc(NC(=O)OC4CCN(C(C)=O)CC4)cc3)n(C3CCC3)c2c1 [Compound 3072] | 211 to 215 °C
31 | CCOc1ccc2c(C#N)c(-c3ccc(NC(=O)OC4CCN(C(=O)OCCOC)CC4)cc3)n(C3CCC3)c2c1 [Compound 3073] | 185 to 190 °C
32 | CCOc1ccc2c(c1)c(C#N)c(-c1ccc(N(S(=O)(=O)CC)S(=O)(=O)CC)cc1)n2CC1CC1 [Compound 3078] | 180 to 182 °C
33 | CCOc1ccc2c(C#N)c(-c3ccc(NC(=O)OCCS(C)(=O)=O)cc3)n(C3CCC3)c2c1 [Compound 3079] | 194 to 195 °C
34 | CCOc1ccc2c(C#N)c(-c3ccc(S(=O)(=O)N4CC[C@H](O)C4)cc3)n(C3CCC3)c2c1 [Compound 3085] | 195 to 196 °C
35 | CCOc1ccc2c(C#N)c(-c3ccc(S(=O)(=O)N4CCC(O)C4)cc3)n(C3CCC3)c2c1 (stereo not drawn) [Compound 3086] | 194 to 196 °C
36 | N#Cc1c(-c2ccc(NC(=O)Nc3n[nH]c(C4CC4)n3)cc2)n(C2CCC2)c2cc(Oc3ncccn3)ccc12 [Compound 3087] | 275 °C (dec.)
37 | CSc1nccc(Oc2ccc3c(C#N)c(-c4ccc(NC(=O)O[C@H](C)C5CC5)cc4)n(C4CCC4)c3c2)n1 [Compound 3089] | 172 to 177 °C
38 | CSc1nccc(Oc2ccc3c(C#N)c(-c4ccc(NC(=O)OC(C)C)cc4)n(C4CCC4)c3c2)n1 [Compound 3090] | 196 to 201 °C
39 | N#Cc1c(-c2ccc(NS(=O)(=O)c3ccccc3)cc2)n(C2CCC2)c2cc(OC3CCOCC3)ccc12 [Compound 3091] | 231 to 233 °C
40 | CSc1nccc(Oc2ccc3c(C#N)c(-c4ccc(NC(=O)NC(C)C)cc4)n(C4CCC4)c3c2)n1 [Compound 3092] | 238 to 243 °C
41 | CCOc1ccc2c([N+](=O)[O-])c(-c3ccc(NC(=O)OC(C)C)cc3)n(CC3CC3)c2c1[N+](=O)[O-] [Compound 3093] | 112 to 119 °C
42 | CCCS(=O)(=O)Nc1ccc(-c2c(C#N)c3cc(C(=O)N(C)C)ccc3n2C2CCC2)cc1 [Compound 3094] | 236 to 237 °C

Row | SMILES | melting point
43 | CCCS(=O)(=O)Nc1ccc(-c2c(C#N)c3cc(C(=O)N(CC)CC)ccc3n2C2CCC2)cc1 [Compound 3095] | 133 to 134 °C
44 | CCCS(=O)(=O)Nc1ccc(-c2c(C#N)c3cc(C(=O)N(C)CC)ccc3n2C2CCC2)cc1 [Compound 3096] | 138 to 139 °C
45 | CCCS(=O)(=O)Nc1ccc(-c2c(C#N)c3cc(C(=O)N4CCCC4)ccc3n2C2CCC2)cc1 [Compound 3097] | 200 to 202 °C
46 | CCCS(=O)(=O)Nc1ccc(-c2c(C#N)c3cc(C(=O)N4CCOCC4)ccc3n2C2CCC2)cc1 [Compound 3098] | 128 to 129 °C
47 | N#Cc1c(-c2ccc(N)cc2)n(C2CCC2)c2cc(Oc3nccc(N4CCOCC4)n3)ccc12 [Compound 3099] | 149 to 152 °C
48 | C[C@@H](OC(=O)Nc1ccc(-c2c(C#N)c3ccc(C(=O)N4CCN(C)CC4)cc3n2C2CCC2)cc1)C1CC1 [Compound 3106] | 104 to 106 °C
49 | C[C@@H](OC(=O)Nc1ccc(-c2c(C#N)c3ccc(C(=O)N4CCOCC4)cc3n2C2CCC2)cc1)C1CC1 [Compound 3107] | 156 to 158 °C
50 | CC1CCN(C(=O)c2ccc3c(C#N)c(-c4ccc(NC(=O)O[C@H](C)C5CC5)cc4)n(C4CCC4)c3c2)CC1 [Compound 3108] | 150 to 153 °C
51 | CC(C)NC(=O)COc1ccc(-c2c(C#N)c3ccc(OC4CCOCC4)cc3n2C2CCC2)cc1 [Compound 3109] | 152 to 153 °C
52 | C=CCNC(=O)Oc1ccc(-c2c(C#N)c3ccc(OC4CCOCC4)cc3n2C2CCC2)cc1 [Compound 3110] | 167 to 168 °C
53 | CN(C)c1ccc(NC(=O)Oc2ccc(-c3c(C#N)c4ccc(OC5CCOCC5)cc4n3C3CCC3)cc2)cc1 [Compound 3111] | 165 to 166 °C
54 | CN(C(=O)Oc1ccc(-c2c(C#N)c3ccc(OC4CCOCC4)cc3n2C2CCC2)cc1)c1ccccc1 [Compound 3112] | 167 to 169 °C
55 | CN1CCN(C(=O)c2ccc3c(C#N)c(-c4ccc(NS(=O)(=O)C5CC5)cc4)n(C4CCC4)c3c2)CC1 [Compound 3114] | 124 to 127 °C
56 | N#Cc1c(-c2ccc(NCCCc3ccccc3)cc2)n(C2CCC2)c2cc(OC3CCOCC3)ccc12 [Compound 3118] | 105 to 108 °C
57 | CC(C)c1ccc(CNc2ccc(-c3c(C#N)c4ccc(OC5CCOCC5)cc4n3C3CCC3)cc2)cc1 [Compound 3119] | 157 to 159 °C
58 | N#Cc1c(-c2ccc(NCc3ccccc3F)cc2)n(C2CCC2)c2cc(OC3CCOCC3)ccc12 [Compound 3120] | 180 to 181 °C
59 | Cc1ccccc1CNc1ccc(-c2c(C#N)c3ccc(OC4CCOCC4)cc3n2C2CCC2)cc1 [Compound 3121] | 168 to 172 °C
60 | Cc1cc(C)cc(CNc2ccc(-c3c(C#N)c4ccc(OC5CCOCC5)cc4n3C3CCC3)cc2)c1 [Compound 3122] | 104 to 107 °C
61 | N#Cc1c(-c2ccc(NCC3CCCCC3)cc2)n(C2CCC2)c2cc(OC3CCOCC3)ccc12 [Compound 3123] | 175 to 177 °C
62 | CC(C)c1ccc(Nc2ccc(-c3c(C#N)c4ccc(OC5CCOCC5)cc4n3C3CCC3)cc2)cc1 [Compound 3127] | 185 to 188 °C
63 | COc1ccc(Nc2ccc(-c3c(C#N)c4ccc(OC5CCOCC5)cc4n3C3CCC3)cc2)cc1 [Compound 3128] | 207 to 210 °C
